Reference: patent US12486253B2, “Therapeutics for the degradation of mutant BRAF” (C4 THERAPEUTICS, INC., priority 2021, dated 2025)
Like-named read-outs stand apart in the source and are kept apart here.

Target: BRAF V600E (Homo sapiens, UniProt P15056, V600E)
Assay: HiBiT cellular BRAF^V600E degradation assay
Format: cell-based
Conditions: for DC50: concentration at which 50% of total cellular BRAF^V600E is degraded; for Emax: read-out: HiBit 24 h Emax
[1] = A375.10 cells, 24 h, residual protein remaining in the cell

Chain of BRAF V600E (P15056 whole entry V600E): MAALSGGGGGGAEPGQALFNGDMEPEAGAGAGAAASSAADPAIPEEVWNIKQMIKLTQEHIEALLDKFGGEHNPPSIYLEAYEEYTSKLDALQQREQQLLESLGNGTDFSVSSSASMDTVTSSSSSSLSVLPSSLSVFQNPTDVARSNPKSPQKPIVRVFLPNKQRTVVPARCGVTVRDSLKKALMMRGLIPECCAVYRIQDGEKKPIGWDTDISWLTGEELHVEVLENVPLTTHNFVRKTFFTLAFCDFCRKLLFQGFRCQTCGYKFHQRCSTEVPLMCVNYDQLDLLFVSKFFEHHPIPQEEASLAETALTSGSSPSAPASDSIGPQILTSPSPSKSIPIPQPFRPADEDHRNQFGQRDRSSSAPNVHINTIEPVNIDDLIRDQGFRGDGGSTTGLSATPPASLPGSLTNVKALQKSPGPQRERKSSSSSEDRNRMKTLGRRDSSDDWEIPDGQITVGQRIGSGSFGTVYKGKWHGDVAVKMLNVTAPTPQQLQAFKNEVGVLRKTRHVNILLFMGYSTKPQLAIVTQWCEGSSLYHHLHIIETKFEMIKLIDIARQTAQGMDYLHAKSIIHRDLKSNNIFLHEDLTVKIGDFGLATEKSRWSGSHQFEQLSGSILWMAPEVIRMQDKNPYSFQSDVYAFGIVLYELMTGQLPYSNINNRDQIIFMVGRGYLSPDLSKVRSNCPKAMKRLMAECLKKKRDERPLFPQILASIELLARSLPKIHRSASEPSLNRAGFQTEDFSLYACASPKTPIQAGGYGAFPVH

DC50 (A375.10 cells, 24 h)	Emax [1]	SMILES	Emax
27.5 nM	15.7%	CCN(C)S(=O)(=O)Nc1ccc(F)c(Oc2ccc3ncn(C4CC5(CCN(C(=O)[C@H]6C[C@H](N7CC(c8ccc(NC9CCC(=O)NC9=O)cc8F)C7)C6)CC5)C4)c(=O)c3c2)c1C#N (stereo partly drawn) [Example 39, 6-[2-cyano-3-[[ethyl(methyl)sulfamoyl]amino]-6-fluorophenoxy]-3-[7-[3-[3-[4-[(2,6-dioxopiperidin-3-yl)amino]-2-fluorophenyl]azetidin-1-yl]cyclobutanecarbonyl]-7-azaspiro[3.5]nonan-2-yl]-4-oxoquinazoline]	–
22.1 nM	8.88%	CCN(C)S(=O)(=O)Nc1ccc(F)c(Oc2ccc3ncn([C@H]4COC5(CCN(C(=O)CN6CCC(c7ccc(N[C@@H]8CCC(=O)NC8=O)cc7F)CC6)CC5)C4)c(=O)c3c2)c1C#N [Example 42, (3R)-3-[6-[2-cyano-3-[[ethyl(methyl)sulfamoyl]amino]-6-fluorophenoxy]-4-oxoquinazolin-3-yl]-8-[2-[4-[4-[[(3R)-2,6-dioxopiperidin-3-yl]amino]-2-fluorophenyl]piperidin-1-yl]acetyl]-1-oxa-8-azaspiro[4.5]decane]	–
23.7 nM	9.95%	CCN(C)S(=O)(=O)Nc1ccc(F)c(Oc2ccc3ncn([C@H]4COC5(CCN(C(=O)CN6CCC(c7ccc(N[C@H]8CCC(=O)NC8=O)cc7F)CC6)CC5)C4)c(=O)c3c2)c1C#N [Example 43, (3R)-3-[6-[2-cyano-3-[[ethyl(methyl)sulfamoyl]amino]-6-fluorophenoxy]-4-oxoquinazolin-3-yl]-8-[2-[4-[4-[[(3S)-2,6-dioxopiperidin-3-yl]amino]-2-fluorophenyl]piperidin-1-yl]acetyl]-1-oxa-8-azaspiro[4.5]decane]	–
25.1 nM	14.4%	CCN(C)S(=O)(=O)Nc1ccc(F)c(Oc2ccc3ncn([C@@H]4CCC5(CCN(C(=O)CN6CCC(c7ccc(N[C@@H]8CCC(=O)NC8=O)cc7F)CC6)CC5)C4)c(=O)c3c2)c1C#N [Example 44, 6-[2-cyano-3-[[ethyl(methyl)sulfamoyl]amino]-6-fluorophenoxy]-3-[(3R)-8-[2-[4-[4-[[(3R)-2,6-dioxopiperidin-3-yl]amino]-2-fluorophenyl]piperidin-1-yl]acetyl]-8-azaspiro[4.5]decan-3-yl]-4-oxoquinazoline]	–
18.7 nM	11.3%	CCN(C)S(=O)(=O)Nc1ccc(F)c(Oc2ccc3ncn([C@@H]4CCC5(CCN(C(=O)CN6CCC(c7ccc(N[C@H]8CCC(=O)NC8=O)cc7F)CC6)CC5)C4)c(=O)c3c2)c1C#N [Example 45, 6-[2-cyano-3-[[ethyl(methyl)sulfamoyl]amino]-6-fluorophenoxy]-3-[(3R)-8-[2-[4-[4-[[(3S)-2,6-dioxopiperidin-3-yl]amino]-2-fluorophenyl]piperidin-1-yl]acetyl]-8-azaspiro[4.5]decan-3-yl]-4-oxoquinazoline]	–
29.9 nM	13.4%	CCN(C)S(=O)(=O)Nc1ccc(F)c(Oc2ccc3ncn([C@H]4COC5(CCN(C(=O)CN6CCC(c7ccc(C8CCC(=O)NC8=O)cc7F)CC6)CC5)C4)c(=O)c3c2)c1C#N (stereo partly drawn) [Example 46, (3R)-3-[6-[2-cyano-3-[[ethyl(methyl)sulfamoyl]amino]-6-fluorophenoxy]-4-oxoquinazolin-3-yl]-8-[2-[4-[4-(2,6-dioxopiperidin-3-yl)-2-fluorophenyl]piperidin-1-yl]acetyl]-1-oxa-8-azaspiro[4.5]decane]	–
25.7 nM	19.3%	CCN(C)S(=O)(=O)Nc1ccc(F)c(Oc2ccc3ncn([C@H]4COC5(CCN(C(=O)CC6CCN(c7ccc(NC8CCC(=O)NC8=O)cc7F)CC6)CC5)C4)c(=O)c3c2)c1C#N (stereo partly drawn) [Example 47, (3R)-3-[6-[2-cyano-3-[[ethyl(methyl)sulfamoyl]amino]-6-fluorophenoxy]-4-oxoquinazolin-3-yl]-8-[2-[1-[4-[(2,6-dioxopiperidin-3-yl)amino]-2-fluorophenyl]piperidin-4-yl]acetyl]-1-oxa-8-azaspiro[4.5]decane]	–
34.5 nM	15.6%	CCN(C)S(=O)(=O)Nc1ccc(F)c(Oc2ccc3ncn([C@H]4CCC5(CCN(C(=O)CN6CCN(c7ccc(NC8CCC(=O)NC8=O)cc7F)CC6)CC5)C4)c(=O)c3c2)c1C#N (stereo partly drawn) [Example 48, 6-[2-cyano-3-[[ethyl(methyl)sulfamoyl]amino]-6-fluorophenoxy]-3-[(3S)-8-[2-[4-[4-[(2,6-dioxopiperidin-3-yl)amino]-2-fluorophenyl]piperazin-1-yl]acetyl]-8-azaspiro[4.5]decan-3-yl]-4-oxoquinazoline]	–
148 nM	10.8%	N#Cc1c(NS(=O)(=O)N2CC[C@@H](F)C2)ccc(F)c1Oc1ccc2ncn([C@H]3COC4(CCN(C(=O)CN5CCC(c6ccc(NC7CCC(=O)NC7=O)cc6F)CC5)CC4)C3)c(=O)c2c1 (stereo partly drawn) [Example 49, (3R)—N-[2-cyano-3-[3-[(3R)-8-[2-[4-[4-[(2,6-dioxopiperidin-3-yl)amino]-2-fluorophenyl]piperidin-1-yl]acetyl]-1-oxa-8-azaspiro[4.5]decan-3-yl]-4-oxoquinazolin-6-yl]oxy-4-fluorophenyl]-3-fluoropyrrolidine-1-sulfonamide]	–
128 nM	13.4%	CCN(C)S(=O)(=O)Nc1ccc(F)c(Oc2ccc3ncn([C@H]4COC5(CCN(C(=O)CN6CCN(c7ccc(NC8CCC(=O)NC8=O)cc7F)CC6)CC5)C4)c(=O)c3c2)c1C#N (stereo partly drawn) [Example 50, (3R)-3-[6-[2-cyano-3-[[ethyl(methyl)sulfamoyl]amino]-6-fluorophenoxy]-4-oxoquinazolin-3-yl]-8-[2-[4-[4-[(2,6-dioxopiperidin-3-yl)amino]-2-fluorophenyl]piperazin-1-yl]acetyl]-1-oxa-8-azaspiro[4.5]decane]	–
29.6 nM	10.9%	CCN(C)S(=O)(=O)Nc1ccc(F)c(Oc2ccc3ncn(C4COC5(CCN(C(=O)CN6CCC(c7ccc(NC8CCC(=O)NC8=O)cc7F)CC6)CC5)C4)c(=O)c3c2F)c1C#N (stereo not drawn) [Example 51, 3-[6-[2-cyano-3-[[ethyl(methyl)sulfamoyl]amino]-6-fluorophenoxy]-5-fluoro-4-oxoquinazolin-3-yl]-8-[2-[4-[4-[(2,6-dioxopiperidin-3-yl)amino]-2-fluorophenyl]piperidin-1-yl]acetyl]-1-oxa-8-azaspiro[4.5]decane]	–
20.7 nM	11.4%	CCN(C)S(=O)(=O)Nc1ccc(F)c(Oc2ccc3ncn(C4CCC5(CCN(C(=O)CN6CCC(c7ccc(NC8CCC(=O)NC8=O)cc7F)CC6)CC5)C4)c(=O)c3c2F)c1C#N (stereo not drawn) [Example 52, 6-[2-cyano-3-[[ethyl(methyl)sulfamoyl]amino]-6-fluorophenoxy]-3-[8-[2-[4-[4-[(2,6-dioxopiperidin-3-yl)amino]-2-fluorophenyl]piperidin-1-yl]acetyl]-8-azaspiro[4.5]decan-3-yl]-5-fluoro-4-oxoquinazoline]	–
30 nM	14.7%	CCN(C)S(=O)(=O)Nc1ccc(F)c(Oc2ccc3ncn([C@H]4CCC5(CCN(C(=O)CN6CCN(c7ccc(C8CCC(=O)NC8=O)cc7F)CC6)CC5)C4)c(=O)c3c2)c1C#N (stereo partly drawn) [Example 55, 6-[2-cyano-3-[[ethyl(methyl)sulfamoyl]amino]-6-fluorophenoxy]-3-[(3S)-8-[2-[4-[4-(2,6-dioxopiperidin-3-yl)-2-fluorophenyl]piperazin-1-yl]acetyl]-8-azaspiro[4.5]decan-3-yl]-4-oxoquinazoline]	–
31.6 nM	11.6%	N#Cc1c(NS(=O)(=O)C2CCCC2)ccc(F)c1Oc1ccc2ncn([C@H]3COC4(CCN(C(=O)CN5CCC(c6ccc(NC7CCC(=O)NC7=O)cc6F)CC5)CC4)C3)c(=O)c2c1 (stereo partly drawn) [Example 56, N-[2-cyano-3-[3-[(3R)-8-[2-[4-[4-[(2,6-dioxopiperidin-3-yl)amino]-2-fluorophenyl]piperidin-1-yl]acetyl]-1-oxa-8-azaspiro[4.5]decan-3-yl]-4-oxoquinazolin-6-yl]oxy-4-fluorophenyl]cyclopentanesulfonamide]	–
20.9 nM	11.5%	CCN(C)S(=O)(=O)Nc1ccc(F)c(Oc2ccc3ncn(C4CCC5(CCN(C(=O)CN6CCC(c7ccc(NC8CCC(=O)NC8=O)cc7F)CC6)CC5)C4)c(=O)c3c2C)c1C#N (stereo not drawn) [Example 57, 6-[2-cyano-3-[[ethyl(methyl)sulfamoyl]amino]-6-fluorophenoxy]-3-[8-[2-[4-[4-[(2,6-dioxopiperidin-3-yl)amino]-2-fluorophenyl]piperidin-1-yl]acetyl]-8-azaspiro[4.5]decan-3-yl]-5-methyl-4-oxoquinazoline]	–
45.3 nM	13.9%	CCN(C)S(=O)(=O)Nc1ccc(F)c(Oc2ccc3ncn([C@H]4COC5(CCN(C(=O)CN6CCC(c7ccc(NC8CCC(=O)NC8=O)cc7F)C(F)(F)C6)CC5)C4)c(=O)c3c2)c1C#N (stereo partly drawn) [Example 58, (3R)-3-[6-[2-cyano-3-[[ethyl(methyl)sulfamoyl]amino]-6-fluorophenoxy]-4-oxoquinazolin-3-yl]-8-[2-[4-[4-[(2,6-dioxopiperidin-3-yl)amino]-2-fluorophenyl]-3,3-difluoropiperidin-1-yl]acetyl]-1-oxa-8-azaspiro[4.5]decane]	–

SMILES	DC50 (A375.10 cells, 24 h)	Emax [1]	Emax
CCN(C)S(=O)(=O)Nc1ccc(F)c(Oc2ccc3ncn(C4COC5(CCN(C(=O)NC6CCN(c7ccc(NC8CCC(=O)NC8=O)cc7F)CC6)CC5)C4)c(=O)c3c2)c1C#N (stereo not drawn) [Example 38, 3-[6-[2-cyano-3-[[ethyl(methyl)sulfamoyl]amino]-6-fluorophenoxy]-4-oxoquinazolin-3-yl]-N-[1-[4-[(2,6-dioxopiperidin-3-yl)amino]-2-fluorophenyl]piperidin-4-yl]-1-oxa-8-azaspiro[4.5]decane-8-carboxamide]	36 nM	–	11.4%
CCN(C)S(=O)(=O)Nc1ccc(F)c(Oc2ccc3ncn([C@H]4COC5(CCN(C(=O)CN6CCC(c7ccc(NC8CCC(=O)NC8=O)c(F)c7)CC6)CC5)C4)c(=O)c3c2)c1C#N (stereo partly drawn) [Example 54, (3R)-3-[6-[2-cyano-3-[[ethyl(methyl)sulfamoyl]amino]-6-fluorophenoxy]-4-oxoquinazolin-3-yl]-8-[2-[4-[4-[(2,6-dioxopiperidin-3-yl)amino]-3-fluorophenyl]piperidin-1-yl]acetyl]-1-oxa-8-azaspiro[4.5]decane]	15.4 nM	–	12.1%
